Measurements as given in patent US20180015070A1, “METHODS AND COMPOSITIONS FOR UPREGULATING ENDOGENOUS ANTIOXIDANT SYSTEMS” (USANA Health Sciences, Inc., priority 2016, published 2018).
Like-named read-outs stand apart in the source and are kept apart here. Marks after values point to notes of the source that are not given here. Each block holds one compound with its values, some of them ahead of it.

What was measured:
[1] = system: NF-κB reporter cells (HEK293); conditions: human, 24 h
human Nrf2 = experiment: Nrf2 reporter assay, agonist mode (native receptor, ARE-luciferase, CV1); type: cell-based; conditions: for agonist activity against human Nrf2: at the concentrations tested
[2] = system: C. elegans strain CB5586 worms; experiment: phenotypic lifespan screening with C. elegans; type: in vivo; conditions: for anti-ageing activity / effect on chronological lifespan: over the concentrations tested; for population age in days at 25% mortality: DMSO control 11; for population age in days at 50% mortality: DMSO control 14; for population age in days at 75% mortality: DMSO control 16
Description: Dilutions of the test formulations were applied to individual populations of C. elegans and the lifespan of each population was monitored. Any changes in the lifespan of an individual population compared to a control population were recorded and correlated to the respective test formulation (N356 or N357) and the respective dilution (0.1 mg/ml, 1 mg/ml, and 10 mg/ml).
The N356 and N357 formulations were each prepared as individual 100 mg/ml stock solutions in dimethyl sulfoxide (DMSO). Serial dilutions of each stock solution were then prepared at 0.1 mg/ml, 1 mg/ml, and 10 mg/ml in DMSO. Control solutions of DMSO only were also prepared. Synchronous aged adult populations of C. elegans strain CB5586 worms were prepared. The CB5586 strain comprises a pharyngeal GFP (green fluorescent protein) tag and a mutation in the bus-5 gene. The pharyngeal GFP tag allows for fluorescent images of the worm populations to be taken. The mutation in the bus-5 gene causes the loss of normal cuticle antigens that permits the cuticle of the worms to become permeable to the test formulations and allow direct uptake of the test formulations to avoid interaction of the test formulations with protective mechanisms of the gut channel. Each serial dilution of each test formulation was added to a separate population of the prepared worms. The control solutions were also added to separate populations of the prepared worms. The populations of the prepared worms were then maintained on standard nematode growth media (NGM) agar plates at 20° C. with sufficient food (Escherichia coli strain OP-50).
Each worm population was then monitored by fluorescent imaging to determine the number of living and dead worms as a function of time. The fluorescent imaging was analyzed by software that recognized and counted worms based on their fluorescent intensity compared to background fluorescence. […] The ability to distinguish between living and dead worms allowed the number of living worms and cumulative number of dead worms to be monitored against time. Worm populations from a selection of fluorescent images were manually checked to verify that the software had accurately counted the number of living and dead worms.
The counts of the living and dead worms as a function of time were then analyzed for each of the worm populations and used to prepare Kaplan-Meier survival curves and associated statistics for each of the worm populations. […] The median lifespan is shown as the length of time after the last mitotic division that 50% of the test population remains viable when compared to the control population. The maximum lifespan extension is shown as the length of time after the last mitotic division that 5% of the test population remains viable when compared to the control population.
The counts of the living and dead worms as a function of time and the Kaplan-Meier survival curves and the associated statistics were then analyzed for each of the worm populations. The analysis included determining mean and median lifespan. The analysis included a non-parametric test, the Log-Rank test, which compares two survival functions for the overall lifespan assay and provides a reliable p-value summarizing the whole experiment. The analysis also included Fisher's Exact Test that calculated the significance of survival function comparisons at multiple specific time points throughout the experiment, rather than for the overall lifespan. The results of the analysis are shown below in Tables 10-17. […]

Nrf2 = Nrf2 signaling fluorescent reporter assay in human retinal epithelial cell line; type: cell-based; conditions: for minimum inducing concentration (Nrf2): human retinal epithelial cell line
Description: The assays were carried out with a fluorescent reporter assay that utilized a human retinal epithelial cell line. The assays also included validation by RT-PCR (reverse transcription polymerase chain reaction) of Nrf2 target genes. The human retinal epithelial cell line was purchased from ATCC (American Type Cell Culture, Manassas, Va.) and was configured to function as a fluorescent reporter assay. Test solutions of each of the alpha lipoic acid, resveratrol, curcumin, EGCG, Olivol®, rutin, quercetin, and hesperetin were prepared by serial dilution. Control solutions were also prepared. Positive control solutions of a known Nrf2 agonist, L-sulphoraphane was also prepared. Each test solution was then assayed for Nrf2 signaling activity using the fluorescent reporter assay and compared to control assays. The positive control solutions were also tested.

[3] = 0.1 mg/ml, compared to DMSO control
[4] = 10 mg/ml, compared to DMSO control
[5] = at 10 μM and 1 (unit not given)

Structure (SMILES): O=C(O)CCCCC1CCSS1 (racemic) [Alpha lipoic acid, alpha lipoic acid]
NF-κB % Live Cell ([1]; 1.42 μg/ml): 100%
Nrf2 Fold-Activation (human Nrf2; 1.42 μg/ml active ingredient): 1.4 fold
Nrf2 Fold-Activation (human Nrf2; 4.25 μg/ml active ingredient): 1.4 fold
Nrf2 Fold-Activation (human Nrf2; 12.7 μg/ml active ingredient): 1.5 fold
Nrf2 Fold-Activation (human Nrf2; 38.23 μg/ml active ingredient): 1.5 fold
Nrf2 Fold-Activation (human Nrf2; 114.70 μg/ml active ingredient): 2.4 fold
agonist activity against human Nrf2 (human Nrf2): very low-level agonist activity
anti-ageing activity / effect on chronological lifespan [2]: significant positive and dose dependent increase of chronological lifespan
activation of Nrf2 against a control (Nrf2; at 100 μM and 30 (unit not given)): demonstrated activation of Nrf2
minimum inducing concentration (Nrf2) (Nrf2): 1.75 µM

Structure (SMILES): COc1cc(/C=C/C(=O)CC(=O)/C=C/c2ccc(O)c(OC)c2)ccc1O [Curcumin, curcumin]
NF-κB % Live Cell ([1]; 0.6 μg/ml): 99%
NF-κB % Live Cell ([1]; 1.81 μg/ml): 97%
Nrf2 Fold-Activation (human Nrf2; 0.007 μg/ml active ingredient): 1.6 fold
Nrf2 Fold-Activation (human Nrf2; 0.022 μg/ml active ingredient): 1.7 fold
Nrf2 Fold-Activation (human Nrf2; 0.067 μg/ml active ingredient): 1.4 fold
Nrf2 Fold-Activation (human Nrf2; 0.20 μg/ml active ingredient): 0.96 fold
Nrf2 Fold-Activation (human Nrf2; 0.60 μg/ml active ingredient): 1.0 fold
Nrf2 Fold-Activation (human Nrf2; 1.81 μg/ml active ingredient): 1.6 fold

Structure (SMILES): COc1ccc([C@@H]2CC(=O)c3c(O)cc(O)cc3O2)cc1O [Hesperetin, (S)-2,3-Dihydro-5,7-dihydroxy-2-(3-hydroxy-4-methoxyphenyl)-4H-1-benzopyran-4-one]
NF-κB % Live Cell ([1]; 0.043 μg/ml): 98%
NF-κB % Live Cell ([1]; 0.389 μg/ml): 99%
NF-κB % Live Cell ([1]; 1.167 μg/ml): 98%
NF-κB % Live Cell ([1]; 3.5 μg/ml): 96%
Nrf2 Fold-Activation (human Nrf2; 0.043 μg/ml active ingredient): 1.4 fold
Nrf2 Fold-Activation (human Nrf2; 0.389 μg/ml active ingredient): 1.3 fold
Nrf2 Fold-Activation (human Nrf2; 1.167 μg/ml active ingredient): 1.5 fold
Nrf2 Fold-Activation (human Nrf2; 3.5 μg/ml active ingredient): 0.94 fold

Structure (SMILES): COc1ccc([C@@H]2CC(=O)c3c(O)cc(O[C@@H]4O[C@H](CO[C@@H]5O[C@@H](C)[C@H](O)[C@@H](O)[C@H]5O)[C@@H](O)[C@H](O)[C@H]4O)cc3O2)cc1O [N347, Hesperidin]
% Change in Mean Lifespan [2, 3]: +10%
extension of lifespan ([2]; 0.1 mg/ml, vs DMSO control): about 10%
population age in days at 25% mortality ([2]; 0.1 mg/ml): 11 days
population age in days at 50% mortality ([2]; 0.1 mg/ml): 16 days
population age in days at 75% mortality ([2]; 0.1 mg/ml): 18 days
Statistically Significant Result [2, 4]: No statistical difference
population age in days at 25% mortality ([2]; 10 mg/ml): 11 days
population age in days at 50% mortality ([2]; 10 mg/ml): 14 days
population age in days at 75% mortality ([2]; 10 mg/ml): 18 days
anti-ageing activity / effect on chronological lifespan [2]: significant positive and dose dependent increase of chronological lifespan

Second part, led by results:

NF-κB % Live Cell ([1]; 23 μg/ml): 97%
NF-κB % Live Cell ([1]; 68 μg/ml): 77*** %
agonist activity against human Nrf2 (human Nrf2): low-level agonist activity
Structure (SMILES): O=c1c(O)c(-c2ccc(O)c(O)c2)oc2cc(O)cc(O)c12 [Quercetin, 2-(3,4-dihydroxyphenyl)-3,5,7-trihydroxy-4H-chromen-4-one]
Statistically Significant Result [2, 4]: No statistical difference
anti-ageing activity / effect on chronological lifespan [2]: significant negative effect on chronological lifespan
concentration giving more Nrf2 activation (Nrf2; 10 μM compared with 1 μM): more activation at the 1 μM concentration
activation of Nrf2 against a control (Nrf2; [5]): demonstrated activation of Nrf2
minimum inducing concentration (Nrf2) (Nrf2): 0.55 µM

NF-κB % Live Cell ([1]; 0.28 μg/ml): 100%
NF-κB % Live Cell ([1]; 0.85 μg/ml): 100%
NF-κB % Live Cell ([1]; 1.81 μg/ml): 99%
Structure (SMILES): Oc1ccc(/C=C/c2cc(O)cc(O)c2)cc1 [Resveratrol, 3,5,4′-trihydroxy-trans-stilbene]
Statistically Significant Result [2, 3]: No statistical difference
anti-ageing activity / effect on chronological lifespan [2]: significant positive and dose dependent increase of chronological lifespan
activation of Nrf2 against a control (Nrf2; [5]): demonstrated activation of Nrf2

NF-κB % Live Cell ([1]; 1.11 μg/ml): 99%
NF-κB % Live Cell ([1]; 3.3 μg/ml): 98%
NF-κB % Live Cell ([1]; 30 μg/ml): 97%
Structure (SMILES): C[C@@H]1O[C@@H](OC[C@H]2O[C@@H](Oc3c(-c4ccc(O)c(O)c4)oc4cc(O)cc(O)c4c3=O)[C@H](O)[C@@H](O)[C@@H]2O)[C@H](O)[C@H](O)[C@H]1O [Rutin, quercetin-3-O-rutinoside]
